Earlier results on one compound are cited in US20260024640A1, “SYSTEM AND METHOD I[…] COMPUTER FOR THE CONTROL OF […] THROUGH FUZZY CONTROL” (SmartTIVA Inc, priority 2022, published 2026).

Read-outs that look alike come from different tables or passages of the source.

The conditions of data set [1]: Marsh.
The conditions of data set [2]: Schnider.
[3] abbreviates: General Model (LBM calculated by weight, age, gender).

In the case of `CC(C)c1cccc(C(C)C)c1O` [Propofol], in data set [1] (70 kg), the V1 is recorded as 15.9 L, the k21 was 0.055 min⁻¹, the k31 was 0.0033 min⁻¹ and the keo was 0.26 min⁻¹. For the same compound, in data set [1] (General Model), the V1 was 0.228 L/kg, the k21 is 0.055 min⁻¹, the k31 was 0.0033 min⁻¹ and the keo is 0.26 min⁻¹. In data set [2] (70 kg, male, height: 170 cm), the V1 is 4.27 L, the k13 was 0.196 min⁻¹, the k21 was 0.067 min⁻¹ and the keo is 0.456 min⁻¹. In data set [2] (setting [3]), the V1 was 4.27 L, the k13 is 0.196 min⁻¹ and the keo was 0.456 min⁻¹.
